Values quoted from earlier work as cited in patent publication US20030012825A1, “Metallized molecule therapies” (priority 2000, published 2003).

Experiments:
[1] = in vivo
[2] = test system: Metrazol-induced seizure; conditions: subcutaneously
[3] = test system: Maximal Electroshock-induced seizure; conditions: subcutaneously
[4] = test system: flow-mediated vasodilation; conditions: in vivo
[5] = test system: HIV
[6] = in vivo; remark: listed apart in the source

COC1=C(OC)C(=O)C(C/C=C(\C)CC/C=C(\C)CC/C=C(\C)CC/C=C(\C)CC/C=C(\C)CC/C=C(\C)CC/C=C(\C)CC/C=C(\C)CC/C=C(\C)CCC=C(C)C)=C(C)C1=O [Coenzyme Q10]
EEG brain activity [1]: lowering of EEG

O=C(O)c1ccccc1[O-].O=C(O)c1ccccc1[O-].[Cu+2] [Cu(II) (salicylate) 2]
dose at which anticonvulsant activity is initiated, preventing the Metrazol-induced seizure [2]: 100 milligrams per kilogram of bodyweight | dose at which anticonvulsant activity is initiated, preventing the Maximal Electroshock-induced seizure [3]: 600 milligrams per kilogram of bodyweight

[Cl][Cu][Cl] [copper chloride]
effect on flow-mediated vasodilation [4]: improve flow-mediated vasodilation

[Cu+] [copper ions]
effect on intracellular HIV replication [5]: inhibit intracellular HIV replication

N[C@@H](Cc1ccc(O)cc1)C(=O)O [tyrosine]
ability to pass the blood-brain barrier [6]: unique ability of passing the blood-brain barrier
